According to PMC12441791, “Structural modifications of toxyloxanthone C and macluraxanthone isolated from Maclura cochinchinensis: cytotoxicity, antibacterial activity, and in silico studies” (RSC Advances, 2025):
Converted amounts (≈) assume the structure as drawn. Read-outs that look alike come from different tables or passages of the source.

Tests used:
[1] = system: MRSA, S. aureus, B. subtilis, and B. cereus; experiment: Antibacterial activity stated over all four Gram-positive strains; format: cell-based; conditions: for MIC against all bacterial strains tested / MIC: MRSA, S. aureus, B. subtilis, B. cereus taken together; for MIC: read-out: MIC against all bacterial strains tested
Description: (§1) Four bacterial cultures Bacillus cereus ATCC 11778, Bacillus subtilis ATCC 6633, Staphylococcus aureus ATCC 25923, and Methicillin resistant Staphylococcus aureus (MRSA) were employed as the test organisms. Minimum inhibitory concentration (MIC) values were determined using the dilution method, as described in the M07-A9,[45] as described in our previous paper.[4,46]

[2] = system: HepG2 (human hepatocellular carcinoma) cells; experiment: In vitro cytotoxicity, HepG2; format: cell-based
Description: (§2) All types of cancer and non-tumorigenic cells were purchased from ATCC. Cytotoxicity assays against human cervical carcinoma (HelaS3; ATCC CCL2-2), human hepatocellular carcinoma (HepG2; ATCC HB-8065), human lung carcinoma (A549; ATCC CCL-185), and African green monkey kidney (Vero; ATCC CCL-81) cell lines were performed by […].[44] Cells proliferation was performed using the MTT colorimetric assay,[44] as in our previous publication.[4]

[3] = system: Bacillus cereus ATCC 11778; experiment: Antibacterial microdilution MIC, B. cereus; format: cell-based
Description: as §1

[4] = system: Bacillus subtilis ATCC 6633; experiment: Antibacterial microdilution MIC, B. subtilis; format: cell-based
Description: as §1

[5] = system: A549 (human lung carcinoma) cells; experiment: In vitro cytotoxicity, A549; format: cell-based
Description: as §2

[6] = system: Methicillin resistant Staphylococcus aureus (MRSA); experiment: Antibacterial microdilution MIC, MRSA; format: cell-based; conditions: read-out: MIC MRSA
Description: as §1

S. aureus ATCC 25923 = experiment: Antibacterial microdilution MIC, S. aureus; format: cell-based; conditions: Staphylococcus aureus
Description: as §1

[7] = system: HelaS3 (human cervical carcinoma) cells; experiment: In vitro cytotoxicity, HelaS3; format: cell-based; conditions: HeLa S3
Description: as §2

[8] = In vitro cytotoxicity, Vero normal cells; format: cell-based, African green monkey; conditions: African green monkey, Vero cells (kidney, non-tumorigenic)
Description: as §2

[9] = system: HelaS3, A549, and HepG2 cancer cell lines; experiment: Cytotoxicity stated over the three cancer cell lines; format: cell-based, human; conditions: HelaS3, A549, HepG2 taken together
Description: as §2

[10] = system: Vero (African green monkey kidney) cells; experiment: In vitro cytotoxicity, Vero normal cells; format: cell-based
Description: as §2

[11] = ATCC11778, microdilution method, ATCC 11778, read-out: MIC B. cereus
[12] = ATCC6633, microdilution method, ATCC 6633, read-out: MIC B. subtilis
[13] = ATCC25923, microdilution method, ATCC 25923, read-out: MIC S. aureus

SMILES | MIC against all bacterial strains tested [1] | IC50 [2] | MIC [3, 11] | MIC [4, 12] | IC50 [5] | MIC ([6]; microdilution method) | MIC (S. aureus ATCC 25923; [13]) | IC50 [7] | IC50 [8] | Cytotoxicity against three cancer cell lines (IC50 values, range over lines) [9] | MIC [1] | Cytotoxicity (IC50, μM) Vero [10] | MIC ([3]; ATCC11778, read-out: MIC B. cereus) | MIC ([4]; ATCC6633, read-out: MIC B. subtilis) | MIC [6] | MIC (S. aureus ATCC 25923; ATCC25923, read-out: MIC S. aureus) | fold improvement in antibacterial potency (MIC) compared to parent 1 ([1]; all bacterial strains) | IC50 ([9]; Homo sapiens, read-out: Cytotoxicity against three cancer cell lines (IC50 values, range over lines))
CCOc1ccc2c(=O)c3c(O)c4c(cc3oc2c1OCC)OC(C)C4(C)C (stereo not drawn) [Compound 1e, 5,6-Diethoxytoxyloxanthone C] | no antibacterial activity | > 100 µM | > 128 µg/mL | > 128 µg/mL | > 100 µM | > 128 µg/mL | > 128 µg/mL | 50.4 ± 8.45 µM | > 100 µM | – | – | – | – | – | – | – | – | –
C=CC(C)(C)c1c2c(c(O)c3c(=O)c4ccc(OS(C)(=O)=O)c(OS(C)(=O)=O)c4oc13)C=CC(C)(C)O2 [Compound 2c, 5,6-Dimesyloxymacluraxanthone] | – | > 100 µM | > 128 µg/mL | > 128 µg/mL | 48.8 ± 4.73 µM | > 128 µg/mL | > 128 µg/mL | 84.3 ± 7.86 µM | > 100 µM | – | – | – | – | – | – | – | – | –
COc1ccc2c(=O)c3c(O)c4c(cc3oc2c1OC)OC(C)C4(C)C (stereo not drawn) [Compound 1d, 5,6-Dimethoxytoxyloxanthone C] | no antibacterial activity | > 100 µM | > 128 µg/mL | > 128 µg/mL | > 100 µM | > 128 µg/mL | > 128 µg/mL | > 100 µM | > 100 µM | no cytotoxicity | – | – | – | – | – | – | – | –
C=CC(C)(C)c1c2c(c(O)c3c(=O)c4ccc(O)c(OCC)c4oc13)C=CC(C)(C)O2 [Compound 2g, 5-Ethoxymacluraxanthone] | – | > 100 µM | > 128 µg/mL | > 128 µg/mL | > 100 µM | > 128 µg/mL | > 128 µg/mL | > 100 µM | > 100 µM | no cytotoxicity | – | – | – | – | – | – | – | –
COc1cccc2c1C(=O)c1c(O)c3c(c(O)c1C2=O)C[C@@](O)(C(=O)CO)C[C@@H]3O[C@H]1C[C@H](N)[C@H](O)[C@H](C)O1 [Doxorubicin, reference compound] | – | 0.37 ± 0.02 µM | – | – | 0.48 ± 0.036 µM | – | – | 0.29 ± 0.02 µM | 1.95 ± 0.13 µM | – | – | – | – | – | – | – | – | –
CCCCC(=O)Oc1ccc2c(=O)c3c(OC(=O)CCCC)c4c(cc3oc2c1OC(=O)CCCC)OC(C)C4(C)C (stereo not drawn) [Compound 1b, 1,5,6-Tripentanoyloxytoxyloxanthone C] | – | 17.2 ± 4.5 µM | 16 µg/mL (≈ 27.6 µM) | 8 µg/mL (≈ 13.8 µM) | 5.77 ± 2.14 µM | 8 µg/mL (≈ 13.8 µM) | 8 µg/mL (≈ 13.8 µM) | 20.5 ± 4.92 µM | 5.59 ± 0.36 µM | – | 8 to 16 µg/mL (≈ 13.8 to 27.6 µM) | strong cytotoxicity | – | – | – | – | – | –
CN[C@H](CC(C)C)C(=O)N[C@H]1C(=O)N[C@@H](CC(N)=O)C(=O)N[C@H]2C(=O)N[C@H]3C(=O)N[C@H](C(=O)N[C@H](C(=O)O)c4cc(O)cc(O)c4-c4cc3ccc4O)[C@H](O)c3ccc(c(Cl)c3)Oc3cc2cc(c3O[C@@H]2O[C@H](CO)[C@@H](O)[C@H](O)[C@H]2O[C@H]2C[C@](C)(N)[C@H](O)[C@H](C)O2)Oc2ccc(cc2Cl)[C@H]1O [Vancomycin, reference compound] | – | – | – | – | – | – | – | – | – | – | – | – | 1 µg/mL (≈ 0.69 µM) | 2 µg/mL (≈ 1.38 µM) | 2 µg/mL (≈ 1.38 µM) | 2 µg/mL (≈ 1.38 µM) | – | –
CC(=O)Oc1ccc2c(=O)c3c(O)c4c(cc3oc2c1OC(C)=O)OC(C)C4(C)C (stereo not drawn) [Compound 1a, 5,6-Diacetoxytoxyloxanthone C] | – | 21.1 ± 1.18 µM | 4 µg/mL (≈ 9.7 µM) | 4 µg/mL (≈ 9.7 µM) | 12.2 ± 1.08 µM | 4 µg/mL (≈ 9.7 µM) | 4 µg/mL (≈ 9.7 µM) | 22.6 ± 2.02 µM | > 100 µM | – | 4 µg/mL (≈ 9.7 µM) | without showing cytotoxicity | – | – | – | – | 32 fold | 12.2 to 22.6 µM
